# Measured values taken from US12064444B2, “Application of tannic acid in preparation of medicament against respiratory viruses” (priority 2020, dated 2024).
# Like-named read-outs stand apart in the source and are kept apart here.
# How the values were obtained:
# SARS-CoV-2 virus [1] = conditions: SARS-CoV-2, Vero-E6 cells; […]
# SARS-CoV-2 virus [2] = experiment: microbe, parasite or virus in culture
# [3] = Toxicity to African green monkey kidney cells (Vero-E6), CCK-8, 48 hours; conditions: African green monkey
# Source text: (§1) • (1) Medicaments: experimental group, tannic acid; control group, Remdesivir (purchased from Shanghai TopScience Technology Co., Ltd.); • (2) Cell line: African green monkey kidney cells (Vero-E6 cells); • (3) Others: MEM medium; 96-well culture plate. 2. […] 3. Experimental results
# (§2) • (1) Medicaments: in the experimental group, tannic acid was mixed with catechin, resveratrol, and zinc gluconate according to a mass ratio of 1:1 to prepare into three pharmaceutical compositions; in the control group, Remdesivir (purchased from Shanghai TopScience Technology Co., Ltd.); • (2) Other experimental materials were the same as those in Embodiment 1. 2. Experimental steps: refer to Embodiment 1. 3. Experimental results
# [4] = system: African green monkey kidney cells (Vero-E6 cells); experiment: as above; conditions: Vero-E6 cells; for TC0 (maximum non-toxic concentration): 48 hours, CCK-8
# Source text: as §1, §2
# Influenza A H1N1 virus = experiment: microbe, parasite or virus in culture; conditions: H1N1, MDCK
# in vitro = conditions: dog
# Protocol: (§3) 2. […] The maximum non-toxic concentration (TC0) of the medicament was taken as the minimum dilution times of the medicament without cytopathic changes, and the median toxic concentration (TC50) of the medicament was calculated by the Reed-Muench formula. 3. Experimental results
# (§4) • (1) Medicaments: same as Embodiment 5; • (2) Other experimental materials were the same as those in Embodiment 3. 2. Experimental procedure: refer to Embodiment 3. 3. Experimental results
# [5] = system: canine kidney epithelial cells (MDCK cells); experiment: Toxicity to canine kidney epithelial cells (MDCK), cytopathic changes; conditions: MDCK cells, cytopathic changes
# Protocol: as §3, §4
# [6] = Severe acute respiratory syndrome coronavirus 2, Vero C1008, 48 h, read-out: IC50 (median inhibitory concentration)
SMILES,SI (SARS-CoV-2 virus [1]),"IC50 (SARS-CoV-2 virus [2]; Severe acute respiratory syndrome coronavirus 2, Vero C1008)",IC50 (SARS-CoV-2 virus [2]; [6]),CC50 at 48 h [3],TC0 (maximum non-toxic concentration) [4],"TC0 ([4]; compositions, mass ratio 1:1)","TC50 ([4]; compositions, mass ratio 1:1)","IC50 (Influenza A H1N1 virus; 48 h, read-out: IC50 (median inhibitory concentration))","IC50 (Influenza A H1N1 virus; Influenza A H1N1, MDCK cells, compositions, mass ratio 1:1)",CC50 (in vitro),TC0 (maximum non-toxic concentration) [5]
CCC(CC)COC(=O)[C@H](C)N[P@](=O)(OC[C@H]1O[C@@](C#N)(c2ccc3c(N)ncnn23)[C@H](O)[C@@H]1O)Oc1ccccc1 [Remdesivir],162.21,0.392 ± 0.003 µg/mL,0.651 ± 0.013 µM,106 µM,52.8 µM,31.816 µg/mL,63.633 µg/mL,,,,
NC(=O)c1ncn([C@@H]2O[C@H](CO)[C@@H](O)[C@H]2O)n1 [Ribavirin],,,,,,,,22.6 ± 0.04 µM,5.52 ± 0.03 µg/mL,1310 µM,
"O=C(OC[C@H]1O[C@@H](OC(=O)c2cc(O)c(O)c(OC(=O)c3cc(O)c(O)c(O)c3)c2)[C@H](OC(=O)c2cc(O)c(O)c(OC(=O)c3cc(O)c(O)c(O)c3)c2)[C@@H](OC(=O)c2cc(O)c(O)c(OC(=O)c3cc(O)c(O)c(O)c3)c2)[C@@H]1OC(=O)c1cc(O)c(O)c(OC(=O)c2cc(O)c(O)c(O)c2)c1)c1cc(O)c(O)c(OC(=O)c2cc(O)c(O)c(O)c2)c1 [Tannic acid, tannic acid]",,,0.0032 µM,23.5 µM,11.8 µM,,,,,752 µM,376.21 µM
